“Also recorded” adds a separate entry of the source.
How the values were obtained:
db/db mice = assay: glucose homeostasis in db/db mice; assay type: in vivo, mouse; details: 100 mg/kg/day in chow
Source text: We therefore investigated the ability of our small molecule RIPK1 inhibitor to improve glucose homeostasis in a diabetic animal model. Mice genetically deficient for the leptin receptor (db/db mice; Jackson Labs, BKS.Cg-Dock7m+/+Leprdb/J) are a widely used animal model of insulin resistance and diabetes. In our study, 4-week old male db/db mice were acclimated for a period of one week. At this point, when the mice were 5 weeks of age, the study was started. Mice were then divided into two group (n=10/group) and baseline measurements of non-fasted blood glucoses (using a glucometer) and body weight were taken. After baseline measurements, one group of mice was fed chow containing RIPK1 inhibitor (100 mg/kg/day, n=10) and the other remained on normal chow (n=10). Animals remained on these diets for 6 weeks. Additional measurements of non-fasted blood glucose and body weight were taken 2 and 4 weeks after study start. At week 8, mice were fasted overnight (16 hours) and fasted blood glucose and body weight were measured on the following day.

[1] = tested on: Diet-induced obese, male mice C57Bl/6J; assay: obesity, high fat diet-fed mice; assay type: in vivo, mouse
Source text: Inflammation is known to be a contributing factor in the pathogenesis of diabetes and obesity (Chen. et. al., International Journal of Endocrinology (2015)). We therefore explored the effect of blocking RIPK1 kinase activity on body weight in mice made obese by chronic feeding of a high fat diet (HFD). Diet-induced obese, male mice C57Bl/6J (Jackson Labs Stock#380050) arrived at 22 weeks of age, with average body weight of 40 g and acclimated for one week and maintained on HFD. Mice were then acclimated to oral gavage with water for 7 days before study start. Thereafter mice received RIPK 1 inhibitor (50 mg/kg, bid, n=9) or vehicle (bid, n=9) for 19 days. Food intake was measured twice weekly and body weight was measured daily throughout the study.

EMT-6 (breast) = assay: syngeneic subcutaneous tumor model EMT-6; assay type: in vivo, mouse; details: RIP1i = Example 78 40 mg/kg p.o. BID x up to 21 days
Method: (§1) The efficacy of RIP1 inhibition was tested in 12 different murine (6-8 week old) syngeneic subcutaenous tumor models. RIP1 inhibition was tested as a single agent in all models, with anti-PD1 combination arms added to the five of the final models.
(§2) T and C are the mean tumor volume of the treated and control groups, respectively, on a given day. • 2) Tumor and plasma collection at study end for further investigation.
(§3) The 12 syngenic cell lines were maintained in vitro with different medium (indicated in Table C) at 37° C. in an atmosphere of 5% CO2 in air. The tumor cells were routinely subcultured twice weekly. The cells in an exponential growth phase were harvested and counted for tumor inoculation.
(§4) Each mouse was inoculated subcutaneously with tumor cells in 0.1 mL of PBS for tumor development. The treatments were started when the mean tumor size reached approximately 80-120 mm^3 (around 100 mm^3).

CT26 (colon) = assay: syngeneic subcutaneous tumor model CT-26; assay type: in vivo, mouse; details: RIP1i = Example 78 40 mg/kg p.o. BID x up to 21 days
Method: as §1, §2, §3, §4

H22 (hepatoma) = assay: syngeneic subcutaneous tumor model H-22; assay type: in vivo, mouse; details: RIP1i = Example 78 40 mg/kg p.o. BID x up to 21 days
Method: as §1, §2, §3, §4

LL/2 (Lewis lung) = assay: syngeneic subcutaneous tumor model LL/2; assay type: in vivo, mouse; details: RIP1i = Example 78 40 mg/kg p.o. BID x up to 21 days
Method: as §1, §2, §3, §4

Renca (renal) = assay: syngeneic subcutaneous tumor model Renca; assay type: in vivo, mouse; details: RIP1i = Example 78 40 mg/kg p.o. BID x up to 21 days
Method: as §1, §2, §3, §4

A20 (B lymphoma) = assay: syngeneic subcutaneous tumor model A20; assay type: in vivo, mouse; details: RIP1i = Example 78 40 mg/kg p.o. BID x up to 21 days
Method: as §1, §2, §3, §4

B16F10 (melanoma) = assay: syngeneic subcutaneous tumor model B16F10; assay type: in vivo, mouse; details: RIP1i = Example 78 40 mg/kg p.o. BID x up to 21 days
Method: as §1, §2, §3, §4

Pan02 (pancreatic) = assay: syngeneic subcutaneous tumor model Pan02; assay type: in vivo, mouse; details: Pan02, PG21; RIP1i = Example 78 40 mg/kg p.o. BID, alone or with anti-PD1
Method: as §1, §2, §3, §4

MC38 (colon) = assay: syngeneic subcutaneous tumor model MC38; assay type: in vivo, mouse; details: RIP1i = Example 78 40 mg/kg p.o. BID, alone or with anti-PD1
Method: as §1, §2, §3, §4

B16BL6 (melanoma) = assay: syngeneic subcutaneous tumor model B16BL6; assay type: in vivo, mouse; details: RIP1i = Example 78 40 mg/kg p.o. BID, alone or with anti-PD1
Method: as §1, §2, §3, §4

RM-1(prostate) = assay: syngeneic subcutaneous tumor model RM-1; assay type: in vivo, mouse; details: RIP1i = Example 78 40 mg/kg p.o. BID, alone or with anti-PD1
Method: as §1, §2, §3, §4

MBT2 (bladder) = assay: syngeneic subcutaneous tumor model MBT2; assay type: in vivo, mouse; details: RIP1i = Example 78 40 mg/kg p.o. BID, alone or with anti-PD1
Method: as §1, §2, §3, §4

[2] = tested on: Sharpin-deficient mice (cpdm); assay: Sharpin-deficient mouse model of TNF-dependent dermatitis; assay type: in vivo; details: food-based 100 or 10 mg/kg/day
Method: Sharpin-deficient mice (cpdm) develop a spontaneous and severe TNF- and RIPK1-dependent dermatitis and multi-organ immunopathology around 6-8 weeks of age (S. B. Berger et al., Journal of Immunology, 192(12):5476-5480, (2014)). Mice were dosed with RIP1 inhibitors at the time of weaning (3-4 weeks of age) prior to the development of dermatitis lesions or therapeutically after the development of dermatitis lesions (about 6 weeks of age) using a food-based dosing regimen, such that mice (4-7 mice per group) received on average 100 mg/kg/day or 10 mg/kg/day of RIP1 inhibitor in diet or control diet. […] The character of the lesion was categorized according the following, in order of increasing severity, 0=none, 1=excoriation only or one small punctuated crust (≤2 mm), 2=multiple, small punctuate crusts or coalescing crust (>2 mm), 3=erosion or ulceration. The regions were identified as: Region 1: the head cranial to the medial pinna attachment and/or lesions affecting the mandible cranial to the sternum, Region 2: inner and outer pinna, dorsal cervical region caudal to the medial pinna attachment, dorsal and ventral thorax, and thoracic limbs, Region 3: any region caudal to the ribcage. A score for the regions affected was categorized per the following: 0=none; 1=Region 2 or 3; 2=Region 2 and 3; 3=Region 1+/−other affected regions. […]

Structure (SMILES): N#Cc1cc(N2CCC(C(=O)N3N=CC[C@H]3c3cc(F)cc(F)c3)CC2)ncn1 [Example 78, (S)-6-(4-(5-(3,5-difluorophenyl)-4,5-dihydro-1H-pyrazole-1-carbonyl)piperidin-1-yl)pyrimidine-4-carbonitrile]
- fasted blood glucose (db/db mice; week 8, fasted overnight (16 hours), versus normal chow): improves fasted blood glucose; also recorded: significantly lower
- non-fasted (fed) blood glucose (db/db mice; weeks 2 and 4, versus normal chow): improves fed blood glucose over time; also recorded: Reduced non-fasted blood glucose at weeks 2 and 4
- body weight ([1]; 50 mg/kg bid PO for 19 days, versus vehicle): did not gain weight
- food intake ([1]; 50 mg/kg bid PO, day 2 and day 5, versus vehicle): initially reduced their food intake
- Mean tumor growth inhibition (TGI) at model termination (EMT-6 (breast)): 21%
- Mean tumor growth inhibition (TGI) at model termination (CT26 (colon)): 19%
- Mean tumor growth inhibition (TGI) at model termination (H22 (hepatoma)): 19%
- Mean tumor growth inhibition (TGI) at model termination (LL/2 (Lewis lung)): 22%
- Mean tumor growth inhibition (TGI) at model termination (Renca (renal)): 19%
- Mean tumor growth inhibition (TGI) at model termination (A20 (B lymphoma)): 0.6%
- Mean tumor growth inhibition (TGI) at model termination (B16F10 (melanoma)): 20%
- Mean tumor growth inhibition (TGI) at model termination (Pan02 (pancreatic)): PG21: 46%
- Mean tumor growth inhibition (TGI) at model termination (MC38 (colon)): −16%
- Mean tumor growth inhibition (TGI) at model termination (B16BL6 (melanoma)): 16%
- Mean tumor growth inhibition (TGI) at model termination (RM-1(prostate)): −8%
- Mean tumor growth inhibition (TGI) at model termination (MBT2 (bladder)): −4%
- development of severe dermatitis ([2]; pre-dosing from weaning (3-4 weeks of age)): complete protection from the development of severe dermatitis
- established dermatitis ([2]; therapeutic dosing after development of lesions (about 6 weeks of age)): rescued established dermatitis

From patent US20190345138A1, “HETEROCYCLIC AMIDES AS KINASE INHIBITORS” (GlaxoSmithKline Intellectual Property Development Limited, priority 2016, published 2019)
